target: T1, human ETA receptor (Homo sapiens, UniProt P25101); assay: ETA receptor binding assay with FIDA analysis; conditions: 1 μM non-labelled ligand; 2 nM TAMRA-labeled endothelin-1; membrane vesicles from CHO cells or VLPs from Sf9 cells; 30 minutes at room temperature
T1 construct: Flag; made in house; host or cells: Sf9 insect cells co-infected with recombinant baculoviruses; VLPs pelleted from the culture supernatant
T1 sequence (P25101 21-427): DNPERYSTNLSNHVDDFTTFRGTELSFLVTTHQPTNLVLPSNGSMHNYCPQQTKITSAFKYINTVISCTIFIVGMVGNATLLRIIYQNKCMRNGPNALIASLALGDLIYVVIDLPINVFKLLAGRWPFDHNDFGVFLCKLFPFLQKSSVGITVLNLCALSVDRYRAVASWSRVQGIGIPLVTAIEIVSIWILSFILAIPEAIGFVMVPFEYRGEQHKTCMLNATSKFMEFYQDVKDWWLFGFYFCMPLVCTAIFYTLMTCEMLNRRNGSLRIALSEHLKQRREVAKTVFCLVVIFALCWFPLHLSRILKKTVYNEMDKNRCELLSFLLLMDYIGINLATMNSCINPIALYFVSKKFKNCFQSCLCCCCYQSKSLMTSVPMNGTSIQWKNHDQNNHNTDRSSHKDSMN
Procedure: After 30 minutes incubation at room temperature the mixture was analysed by FIDA using a beam scanner and 543 nm laser light for excitation.

Molecule	competition with TAMRA-labeled endothelin-1 for binding to the ETA receptor
C[C@H](N)C(=O)NCC(=O)N[C@H]1CSSC[C@@H](C(=O)O)NC(=O)[C@H](CO)NC(=O)[C@H]([C@@H](C)O)NC(=O)[C@H](Cc2ccccc2)NC(=O)[C@H]([C@@H](C)O)NC(=O)[C@H](CCCCN)NC(=O)[C@H](Cc2c[nH]c3ccccc23)NC(=O)[C@H](Cc2ccccc2)NC(=O)[C@H](Cc2ccccc2)NC(=O)[C@H](CC(N)=O)NC(=O)[C@H](CCCCN)NC1=O [somatostatin-14]	non-competing ligand
endothelin-1	competing ligand
big endothelin-1	non-competing ligand
